Experimental findings from US9475816B2, “Substituted-1,4-dihydropyrazolo[4,3-b]indoles” (TAKEDA PHARMACEUTICAL COMPANY LIMITED, priority 2012, dated 2016) are described below.

Test [1] addresses T1, human MetAP2 enzyme (Homo sapiens, UniProt P50579). Briefly: MetAP2 enzyme assay, MetAP2 enzyme complexed with cobalt ions. The note with it: MetAP2 Co pIC50, 10 μM CoCl2; -log(IC50), IC50 molar.
Method: (§1) DNA encoding the full-length sequence of human MetAP2 enzyme is amplified by PCR and cloned into a pFastBac expression vector (Invitrogen). Recombinant baculovirus incorporating the MetAP2 construct is generated by transposition using the Bac-to-Bac system (Invitrogen). The expression of recombinant protein is carried out by infection of Spodoptera frugiperda Sf9 cells (Invitrogen) in 5L Wave Bioreactors (Wave Biotech). Recombinant protein is isolated from cellular extracts by binding to an SP Hitrap Fast Flow or SP Sepharose (Sigma) column, and the protein is eluted using a NaCl gradient. Partially purified extracts of MetAP2 are further purified by an AKTA FPLC over a Superdex-200 column (GE). The purity of MetAP2 protein is determined on denaturing SDS-PAGE gel.
(§2) The results for each well are expressed as percent inhibition and calculated using the equation:
Test [2] concerns the target T1, human MetAP2 enzyme. Briefly: MetAP2 enzyme assay, MetAP2 enzyme complexed with manganese ions. The conditions noted are these: MetAP2 Mn pIC50, 10 μM MnCl2; -log(IC50), IC50 molar.
Method: as §1, §2

T1 sequence (P50579 whole entry): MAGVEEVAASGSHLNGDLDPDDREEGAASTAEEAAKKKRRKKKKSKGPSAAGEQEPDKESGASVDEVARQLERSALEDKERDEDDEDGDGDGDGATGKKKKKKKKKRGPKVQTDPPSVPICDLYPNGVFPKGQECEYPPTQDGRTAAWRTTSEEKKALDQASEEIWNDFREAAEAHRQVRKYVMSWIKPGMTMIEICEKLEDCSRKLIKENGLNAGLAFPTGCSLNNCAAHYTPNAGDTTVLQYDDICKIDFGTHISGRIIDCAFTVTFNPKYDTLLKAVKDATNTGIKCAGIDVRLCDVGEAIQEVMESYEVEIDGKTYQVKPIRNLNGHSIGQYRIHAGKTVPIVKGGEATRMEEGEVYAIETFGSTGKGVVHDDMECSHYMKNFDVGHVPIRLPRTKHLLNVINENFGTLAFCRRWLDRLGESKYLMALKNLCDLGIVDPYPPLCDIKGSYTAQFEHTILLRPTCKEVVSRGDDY

Broadly, the IC50 is the concentration needed to halve the response being measured. A higher IC50 goes with lower potency. `COCCn1cnc2cc(-n3c4ccc(F)cc4c4[nH]ncc43)c(C)nc21` [Example 31, 7-Fluoro-4-(3-(2-methoxyethyl)-5-methyl-3H-imidazo[4,5-b]pyridin-6-yl)-1,4-dihydropyrazolo[4,3-b]indole]: the IC50 against human MetAP2 enzyme [1] is 7.94 nM; on human MetAP2 enzyme [2] it was 10 nM.
For `Cc1nc2[nH]c(=O)n(CCO)c2cc1-n1c2ccc(F)cc2c2[nH]ncc21` [Example 32, 6-(7-Fluoropyrazolo[4,3-b]indol-4(1H)-yl)-1-(2-hydroxyethyl)-5-methyl-1H-imidazo[4,5-b]pyridin-2(3H)-one], in that order: 7.94 nM and 10 nM.
For `Cc1nc2c(cc1-n1c3ccc(F)cc3c3[nH]ncc31)[nH]c(=O)n2C[C@H](O)CO` [Example 33, 3-((S)-2,3-Dihydroxypropyl)-6-(7-fluoropyrazolo[4,3-b]indol-4(1H)-yl)-5-methyl-1H-imidazo[4,5-b]pyridin-2(3H)-one], in that order: 7.94 nM and 10 nM.
Taken in the same sequence, the figures for `Cc1nc(N2CC[C@H](F)C2)ncc1-n1c2ccc(F)cc2c2[nH]ncc21` [Example 34, 7-Fluoro-4-(2-((S)-3-fluoropyrrolidin-1-yl)-4-methylpyrimidin-5-yl)-1,4-dihydropyrazolo[4,3-b]indole] were 63.1 nM and 79.4 nM.
In the case of `Cc1nc(N2CC[C@@H](N(C)C)C2)ncc1-n1c2ccc(F)cc2c2[nH]ncc21` [Example 35, (3R)-1-(5-(7-Fluoropyrazolo[4,3-b]indol-4(1H)-yl)-4-methylpyrimidin-2-yl)-N,N-dimethylpyrrolidin-3-amine], the results for the IC50 against human MetAP2 enzyme [1] and against human MetAP2 enzyme [2] were 39.8 nM and 79.4 nM, respectively.
For `Cc1nc(N2CC[C@@H](F)C2)ncc1-n1c2ccc(F)cc2c2[nH]ncc21` [Example 36, 7-Fluoro-4-(2-((R)-3-fluoropyrrolidin-1-yl)-4-methylpyrimidin-5-yl)-1,4-dihydropyrazolo[4,3-b]indole], in that order: 39.8 nM and 63.1 nM.
Taken in the same sequence, the figures for `Cc1nc(N2CCC[C@H](O)C2)ncc1-n1c2ccc(F)cc2c2[nH]ncc21` [Example 37, (3S)-1-(5-(7-Fluoropyrazolo[4,3-b]indol-4(1H)-yl)-4-methylpyrimidin-2-yl)piperidin-3-ol] were 6.31 nM and 6.31 nM.
For `CNC(=O)[C@@H]1CCCN1c1ncc(-n2c3ccc(F)cc3c3[nH]ncc32)c(C)n1` [Example 38, (2S)-1-(5-(7-Fluoropyrazolo[4,3-b]indol-4(1H)-yl)-4-methylpyrimidin-2-yl)-N-methylpyrrolidine-2-carboxamide], in that order: 6.31 nM and 7.94 nM.
Take `Cc1nc(N2CCN(C)C(=O)C2)ncc1-n1c2ccc(F)cc2c2[nH]ncc21` [Example 39, 4-(5-(7-Fluoropyrazolo[4,3-b]indol-4(1H)-yl)-4-methylpyrimidin-2-yl)-1-methylpiperazin-2-one]: the IC50 on human MetAP2 enzyme [1] is 6.31 nM; at human MetAP2 enzyme [2], 7.94 nM.
For `Cc1[nH]c(=O)ccc1-n1c2ccc(F)cc2c2[nH]ncc21` [Example 40, 5-(7-Fluoropyrazolo[4,3-b]indol-4(1H)-yl)-6-methylpyridin-2(1H)-one], in that order: 15.8 nM and 15.8 nM.
For `Cc1cc(N)ncc1-n1c2ccc(F)cc2c2[nH]ncc21` [Example 41, 5-(7-Fluoropyrazolo[4,3-b]indol-4(1H)-yl)-4-methylpyridin-2-amine], in that order: 12.6 nM and 12.6 nM.
For `Cc1nc(N)ccc1-n1c2ccc(F)cc2c2[nH]ncc21` [Example 42, 5-(7-Fluoropyrazolo[4,3-b]indol-4(1H)-yl)-6-methylpyridin-2-amine], in that order: 10 nM and 15.8 nM.
Consider `Cc1nc(N2CC(F)(F)C2)ncc1-n1c2ccc(F)cc2c2[nH]ncc21` [Example 43, 4-(2-(3,3-Difluoroazetidin-1-yl)-4-methylpyrimidin-5-yl)-7-fluoro-1,4-dihydropyrazolo[4,3-b]indole], for which the IC50 at human MetAP2 enzyme [1] and on human MetAP2 enzyme [2] was 12.6 nM in each case.
Turning to `Cc1nc(N2CCNC(=O)C2)ncc1-n1c2ccc(F)cc2c2[nH]ncc21` [Example 44, 4-(5-(7-Fluoropyrazolo[4,3-b]indol-4(1H)-yl)-4-methylpyrimidin-2-yl)piperazin-2-one], the IC50 was 7.94 nM on human MetAP2 enzyme [1] and 10 nM on human MetAP2 enzyme [2].
For `CNc1cc(C)c(-n2c3ccc(F)cc3c3[nH]ncc32)cn1` [Example 45, 5-(7-Fluoropyrazolo[4,3-b]indol-4(1H)-yl)-N,4-dimethylpyridin-2-amine], in that order: 6.31 nM and 12.6 nM.
Taken in the same sequence, the figures for `Cn1nccc1-n1c2ccc(F)cc2c2[nH]ncc21` [Example 46, 7-Fluoro-4-(1-methyl-1H-pyrazol-5-yl)-1,4-dihydropyrazolo[4,3-b]indole] were 20 nM and 20 nM.
For `Cc1nc(N2CC(CO)C2)ncc1-n1c2ccc(F)cc2c2[nH]ncc21` [Example 47, (1-(5-(7-Fluoropyrazolo[4,3-b]indol-4(1H)-yl)-4-methylpyrimidin-2-yl)azetidin-3-yl)methanol], in that order: 7.94 nM and 12.6 nM.
In the case of `Cn1nc(C(N)=O)cc1-n1c2ccc(F)cc2c2[nH]ncc21` [Example 48, 5-(7-Fluoropyrazolo[4,3-b]indol-4(1H)-yl)-1-methyl-1H-pyrazole-3-carboxamide], the IC50 at human MetAP2 enzyme [1] was 15.8 nM; on human MetAP2 enzyme [2] it was 12.6 nM.
Taken in the same sequence, the figures for `Cc1ncncc1-n1c2ccc(F)cc2c2[nH]ncc21` [Example 49, 7-Fluoro-4-(4-methylpyrimidin-5-yl)-1,4-dihydropyrazolo[4,3-b]indole] were 63.1 nM and 31.6 nM.
On to `O=C(c1ccc(Cn2c3ccc(F)cc3c3[nH]ncc32)cc1)N1CCOCC1` [Example 52, (4-((7-Fluoropyrazolo[4,3-b]indol-4(1H)-yl)methyl)phenyl)(morpholino)methanone], for which the IC50 on human MetAP2 enzyme [1] was 31.6 nM; on human MetAP2 enzyme [2], 50.1 nM.
For `CN1CCN(C(=O)c2ccc(Cn3c4ccc(F)cc4c4[nH]ncc43)cc2)CC1` [Example 53, (4-((7-Fluoropyrazolo[4,3-b]indol-4(1H)-yl)methyl)phenyl)(4-methylpiperazin-1-yl)methanone], in that order: 50.1 nM and 79.4 nM.
Taken in the same sequence, the figures for `O=C(NCCO)c1ccc(Cn2c3ccc(F)cc3c3[nH]ncc32)cc1` [Example 54, 4-((7-Fluoropyrazolo[4,3-b]indol-4(1H)-yl)methyl)-N-(2-hydroxyethyl)benzamide] were 31.6 nM and 39.8 nM.
Regarding `Cc1nc(N2CC[C@H](O)C2)ncc1-n1c2ccc(F)cc2c2[nH]ncc21` [Example 55, (S)-1-(5-(7-Fluoropyrazolo[4,3-b]indol-4(1H)-yl)-4-methylpyrimidin-2-yl)pyrrolidin-3-ol], the values for the IC50 at human MetAP2 enzyme [1] and at human MetAP2 enzyme [2] were 25.1 nM and 15.8 nM, respectively.
Taken in the same sequence, the figures for `Cc1nc(N2CCC(C#N)CC2)ncc1-n1c2ccc(F)cc2c2[nH]ncc21` [Example 56, 1-(5-(7-Fluoropyrazolo[4,3-b]indol-4(1H)-yl)-4-methylpyrimidin-2-yl)piperidine-4-carbonitrile] were 12.6 nM and 7.94 nM.
Taken in the same sequence, the figures for `Cc1nc(N2CCC(F)CC2)ncc1-n1c2ccc(F)cc2c2[nH]ncc21` [Example 57, 7-Fluoro-4-(2-(4-fluoropiperidin-1-yl)-4-methylpyrimidin-5-yl)-1,4-dihydropyrazolo[4,3-b]indole] were 25.1 nM and 12.6 nM.
For `Cc1nc(N2CC[C@@H](O)C2)ncc1-n1c2ccc(F)cc2c2[nH]ncc21` [Example 58, (3R)-1-(5-(7-Fluoropyrazolo[4,3-b]indol-4(1H)-yl)-4-methylpyrimidin-2-yl)pyrrolidin-3-ol], in that order: 15.8 nM and 12.6 nM.
`Cc1nc(N2CCC(CO)CC2)ncc1-n1c2ccc(F)cc2c2[nH]ncc21` [Example 59, (1-(5-(7-Fluoropyrazolo[4,3-b]indol-4(1H)-yl)-4-methylpyrimidin-2-yl)piperidin-4-yl)methanol]: the IC50 against human MetAP2 enzyme [1] is 12.6 nM; on human MetAP2 enzyme [2], 10 nM.
Taken in the same sequence, the figures for `Cc1nc(N2CCN(C)CC2)ncc1-n1c2ccc(F)cc2c2[nH]ncc21` [Example 60, 7-Fluoro-4-(4-methyl-2-(4-methylpiperazin-1-yl)pyrimidin-5-yl)-1,4-dihydropyrazolo[4,3-b]indole] were 3.16 nM and 10 nM.
For `Cc1ncccc1-n1c2ccc(F)cc2c2[nH]ncc21` [Example 61, 7-Fluoro-4-(2-methylpyridin-3-yl)-1,4-dihydropyrazolo[4,3-b]indole], in that order: 15.8 nM and 12.6 nM.
Taken in the same sequence, the figures for `Cc1nn(C)c(C)c1-n1c2ccc(F)cc2c2[nH]ncc21` [Example 62, 7-Fluoro-4-(1,3,5-trimethyl-1H-pyrazol-4-yl)-1,4-dihydropyrazolo[4,3-b]indole] were 25.1 nM and 31.6 nM.
For `Cc1cc(N(C)CCO)ncc1-n1c2ccc(F)cc2c2[nH]ncc21` [Example 63, 2-((5-(7-Fluoropyrazolo[4,3-b]indol-4(1H)-yl)-4-methylpyridin-2-yl)(methyl)amino)ethanol], the IC50 at human MetAP2 enzyme [1] and on human MetAP2 enzyme [2] was 15.8 nM throughout.
Take `Cc1nc(N2CCNCC2)ccc1-n1c2ccc(F)cc2c2[nH]ncc21` [Example 64, 7-Fluoro-4-(2-methyl-6-(piperazin-1-yl)pyridin-3-yl)-1,4-dihydropyrazolo[4,3-b]indole]: the IC50 against human MetAP2 enzyme [1] was 15.8 nM; on human MetAP2 enzyme [2], 12.6 nM.
With `COCc1[nH]ncc1-n1c2ccc(F)cc2c2[nH]ncc21` [Example 65, 7-Fluoro-4-(5-(methoxymethyl)-1H-pyrazol-4-yl)-1,4-dihydropyrazolo[4,3-b]indole], the IC50 on human MetAP2 enzyme [1] was 12.6 nM; on human MetAP2 enzyme [2], 10 nM.
